For data set [1], the system named is sterol synthesis (rat liver homogenate). The note with it: read-out: IC50, concentration required for 50% inhibition of sterol synthesis, one-hour period, data disclosed in U.S. Pat. No. 5,273,995; cited from earlier work.
Data set [2] is described as follows: Stability of the hydroxy acid compounds in acidic environment, under light, or in wet-granulated compositions (statement). It is filed as physicochemical. The following applies: no calcium carbonate.

Structures can show the parent of a compound that is named as a salt.

Turning to `CC(C)c1c(C(=O)Nc2ccccc2)c(-c2ccccc2)c(-c2ccc(F)cc2)n1CC[C@H](O)C[C@H](O)CC(=O)O` [[S-(R*R*)] isomer], the IC50 in data set [1] is 440 nM. In the case of `CC(C)c1c(C(=O)Nc2ccccc2)c(-c2ccccc2)c(-c2ccc(F)cc2)n1CC[C@@H](O)C[C@@H](O)CC(=O)O` [CI-981 Hemi-Calcium, [R-(R*,R*)]-2-(4-fluorophenyl)-β,δ-dihydroxy-5-(1-methylethyl)-3-phenyl-4-[(phenylamino)carbonyl]-1H-pyrrole-1-heptanoic acid hemicalcium salt], the IC50 in data set [1] was 4.4 nM. The “degradation in compositions prepared by the wet-granulation method” value in data set [2] is “degrades rapidly”. For the compound `CC(C)c1c(C(=O)Nc2ccccc2)c(-c2ccccc2)c(-c2ccc(F)cc2)n1CC[C@@H](O)C[C@@H](O)CC(=O)O` (relative stereo) [Racemate], in data set [1], the IC50 was 45 nM.

The record behind these values is US5686104A, “Stable oral CI-981 formulation and process of preparing same” (Warner-Lambert Company, priority 1994, dated 1997).
